Assay results: patent publication US20250228239A1, “MOLECULES HAVING PESTICIDAL UTILITY, AND INTERMEDIATES, COMPOSITIONS, AND PROCESSES, RELATED THERETO” (priority 2024, published 2025)
Read-outs that look alike come from different tables or passages of the source.

How the values were obtained:
Assay type in all cases: in vivo
[1] = tested on: Yellow Fever Mosquito (Aedes aegypti, AEDSAE); settings: for YFM rating: Table ABC / ABC-DP rating
How it was run: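 Compounds from 4000 ppm DMSO stocks were diluted in 90:10 water/acetone and dispensed into wells, then infested with about 1-day-old larvae in liver-powder water. Covered plates were held at room temperature for 3 days and each well was scored for mortality against a rating scale; six replicate plates per compound.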

[2] = tested on: Cabbage Looper (Trichoplusia ni, TRIPNI); assay: Bioassays on Cabbage Looper (CL), 128-well diet tray assay
How it was run: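 Diet tray, 2nd instar, 1–5 larvae/well; 50 μg/cm^2 compound surface-applied (acetone:water 90:10), dried; 8 wells/treatment; 25° C, 14:10 L:D, 5–7 d; % mortality, mean of 8 wells.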

[3] = tested on: Beet Armyworm (Spodoptera exigua, LAPHEG); assay: Bioassays on Beet Armyworm (BAW), 128-well diet tray assay
How it was run: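 Second-instar larvae, one to five per well, were placed on artificial diet surface-treated with 50 μg/cm^2 compound in 90:10 acetone-water, eight wells per treatment. Trays were held 5–7 days at 25 °C, 14:10 light-dark. Percent mortality per well was averaged over eight wells.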

[4] = tested on: Green Peach Aphid (Myzus persicae, MYZUPE); assay: Bioassays on Green Peach Aphid (GPA), foliar spray on cabbage seedlings; settings: 72 h
Protocol: Certain molecules disclosed in this document were tested against GPA using procedures described in the following example. In the reporting of the results, the “GPA & YFM Rating Table” was used (See Table Section).
Cabbage seedlings grown in 3-inch pots, with 2-3 small (3-5 cm) true leaves, were used as test substrate. The seedlings were infested with 20-50 GPA (wingless adult and nymph stages) one day prior to chemical application. Four pots with individual seedlings were used for each treatment. Test molecules (2 mg) were dissolved in 2 mL of acetone/methanol (1:1) solvent, forming stock solutions of 1000 ppm test molecule. The stock solutions were diluted 5× with 0.025% Tween 20 in water to obtain the solution at 200 ppm test molecule. A hand-held aspirator-type sprayer was used for spraying a solution to both sides of […] leaves until runoff. Reference plants (solvent check) were sprayed with the diluent only containing 20% by volume of acetone/methanol (1:1) solvent. Treated plants were held in a holding room for three days at approximately 25° C. and ambient relative humidity (RH) prior to grading. Evaluation was conducted by counting the number of live aphids per plant under a microscope. Percent control was measured using Abbott's correction formula (W. S. Abbott, “A Method of Computing the Effectiveness of an Insecticide” J. Econ. Entomol. 18 (1925), pp. 265-267) as follows. Corrected % Control=100*(X−Y)/X where X=No. of live aphids on solvent check plants and Y=No. of live aphids on treated plants. The results are indicated in the table entitled “Table ABC: Biological Results” (See Table Section).

[5] = Green Peach Aphid, Table ABC / ABC-DP rating, read-out: GPA rating
[6] = Table ABC: Biological Results, species YFM
[7] = Trichoplusia ni, Table ABC: Biological Results, species CL, read-out: CL
[8] = Spodoptera exigua, Table ABC: Biological Results, species BAW, read-out: BAW
[9] = Table ABC: Biological Results, species GPA, read-out: GPA
[10] = Yellow Fever Mosquito, rating class
[11] = Trichoplusia ni, Cabbage Looper, rating class, read-out: CL
[12] = Spodoptera exigua, Beet Armyworm, rating class, read-out: BAW
[13] = Green Peach Aphid, rating class, read-out: GPA
[14] = Trichoplusia ni, Cabbage Looper, Table ABC / ABC-DP rating, read-out: CL rating
[15] = Spodoptera exigua, Beet Armyworm, Table ABC / ABC-DP rating, read-out: BAW rating

| Compound | YFM [1, 6] | pest or weed control at 50 µg/cm2 [2, 7] | pest or weed control at 50 µg/cm2 [3, 8] | pest or weed control at 200 µg/mL [4, 9] | YFM [1, 10] | pest or weed control at 50 µg/cm2 [2, 11] | pest or weed control at 50 µg/cm2 [3, 12] | pest or weed control at 200 µg/mL [4, 13] | other results |
| --- | --- | --- | --- | --- | --- | --- | --- | --- | --- |
| O=C(NCCNC(=O)C(F)(F)F)c1cc(NC(=O)[C@H]2[C@H](c3cc(Cl)cc(Cl)c3)C2(Cl)Cl)ccc1Cl (relative stereo) [F2082, trans-2-Chloro-5-(2,2-dichloro-3-(3,5-dichlorophenyl)cyclopropane-1-carboxamido)-N-(2-(2,2,2-trifluoroacetamido)ethyl)benzamide] | – | – | – | – | – | – | – | – | YFM rating ([1]; Yellow Fever Mosquito): B (More than 0 – Less than 80); CL rating ([2]; Cabbage Looper, Table ABC / ABC-DP rating): A (50–100); BAW rating ([3]; Beet Armyworm, Table ABC / ABC-DP rating): A (50–100); pest or weed control at 200 µg/mL [4, 5]: 80 to 100% |
| O=C(Nc1cc(NC(=O)C(F)(F)Cl)c(F)cc1F)c1cc(NC(=O)[C@H]2[C@H](c3ccc(Cl)c(Cl)c3)C2(Cl)Cl)ccc1Cl [F1243, 2-Chloro-N-(5-(2-chloro-2,2-difluoroacetamido)-2,4-difluorophenyl)-5-((1R,3R)-2,2-dichloro-3-(3,4-dichlorophenyl)cyclopropane-1-carboxamido)benzamide] | A (80–100) | 50 to 100% | 50 to 100% | 0 to 80% | – | – | – | – | – |
| O=C1CC(C(=O)Nc2c(F)ccc(NC(=O)c3cc(NC(=O)[C@H]4[C@H](c5ccc(Cl)c(Cl)c5)C4(Cl)Cl)ccc3Cl)c2F)C1 [F1475, 2-Chloro-5-((1R,3R)-2,2-dichloro-3-(3,4-dichlorophenyl)cyclopropane-1-carboxamido)-N-(2,4-difluoro-3-(3-oxocyclobutane-1-carboxamido)phenyl)benzamide] | – | – | – | – | A (80–100) | 50 to 100% | 50 to 100% | 0 to 80% | – |
| CC(Br)C(=O)Nc1c(F)ccc(NC(=O)c2cc(NC(=O)[C@H]3[C@H](c4ccc(F)c(C(F)(F)F)c4)C3(Cl)Cl)ccc2Cl)c1F (stereo partly drawn) [F1479, N-(3-(2-Bromopropanamido)-2,4-difluorophenyl)-2-chloro-5-((1R,3R)-2,2-dichloro-3-(4-fluoro-3-(trifluoromethyl)phenyl)cyclopropane-1-carboxamido)benzamide] | – | – | – | – | A (80–100) | 50 to 100% | 50 to 100% | 0 to 80% | – |
| O=C(Nc1c(F)ccc(NC(=O)C(F)F)c1F)c1cc(NC(=O)[C@H]2[C@H](c3cc(Cl)cc(Cl)c3)C2(Cl)Cl)ccc1Cl [F1241, 2-Chloro-5-((1R,3R)-2,2-dichloro-3-(3,5-dichlorophenyl)cyclopropane-1-carboxamido)-N-(3-(2,2-difluoroacetamido)-2,6-difluorophenyl)benzamide] | A (80–100) | 50 to 100% | 50 to 100% | 80 to 100% | – | – | – | – | – |
| Nc1c(F)ccc(NC(=O)c2cc(NC(=O)[C@H]3[C@H](c4ccc(F)c(C(F)(F)F)c4)C3(Cl)Cl)ccc2Cl)c1F (relative stereo) [DP8, trans-N-(3-amino-2,4-difluorophenyl)-2-chloro-5-(2,2-dichloro-3-(4-fluoro-3-(trifluoromethyl)phenyl)cyclopropane-1-carboxamido)benzamide] | – | – | – | – | – | – | – | – | YFM rating ([1]; Yellow Fever Mosquito): A (80–100); YFM % Control (or Mortality) rating ([1]; about 1 day-old larvae, 4000 ppm master solution diluted with 90:10 water/acetone, 15 μL per well plus 220 μL larval mixture, 3 days, mortality): A (80–100); mortality at 50 µg/cm2 ([2]; Trichoplusia ni, 168 h, second instar larvae, 50 μg/cm^2 of test molecule on artificial diet, 25° C., five to seven days, average of eight wells, read-out: CL % Control (or Mortality) rating): 50 to 100%; pest or weed control at 50 µg/cm2 [2, 14]: 50 to 100%; mortality at 50 µg/cm2 ([3]; Spodoptera exigua, 168 h, second instar larvae, 50 μg/cm^2 of test molecule on artificial diet, 25° C., five to seven days, average of eight wells, read-out: BAW % Control (or Mortality) rating): 50 to 100%; pest or weed control at 50 µg/cm2 [3, 15]: 50 to 100%; mortality at 200 ppm ([4]; 200 ppm test molecule sprayed on infested cabbage seedlings, three days, Abbott's corrected % control, read-out: GPA % Control (or Mortality) rating): 80 to 100%; pest or weed control at 200 µg/mL [4, 5]: 80 to 100% |
| O=C(Nc1ccc(F)cc1)c1c(Cl)ccc(NC(=O)[C@H]2[C@H](c3ccc(F)c(Cl)c3)C2(Cl)Cl)c1Cl (relative stereo) [F1103, trans-2,6-Dichloro-3-(2,2-dichloro-3-(3-chloro-4-fluorophenyl)cyclopropane-1-carboxamido)-N-(4-fluorophenyl)benzamide] | A (80–100) | 50 to 100% | 50 to 100% | 0 to 80% | – | – | – | – | – |
| CCC(=O)Nc1c(F)ccc(NC(=O)c2cc(NC(=O)[C@H]3[C@H](c4ccc(F)c(C(F)(F)F)c4)C3(Cl)Cl)ccc2Cl)c1F [F1371, 2-Chloro-5-((1R,3R)-2,2-dichloro-3-(4-fluoro-3-(trifluoromethyl)phenyl)cyclopropane-1-carboxamido)-N-(2,4-difluoro-3-propionamidophenyl)benzamide] | A (80–100) | 50 to 100% | 50 to 100% | 0 to 80% | – | – | – | – | – |
| O=C(Nc1ccc(F)c(NC(=O)C(F)F)c1F)c1cc(NC(=O)[C@H]2[C@H](c3ccc(F)cc3)C2(Cl)Cl)ccc1Cl (relative stereo) [F1598, trans-2-Chloro-5-(2,2-dichloro-3-(4-fluorophenyl)cyclopropane-1-carboxamido)-N-(3-(2,2-difluoroacetamido)-2,4-difluorophenyl)benzamide] | – | – | – | – | A (80–100) | 50 to 100% | 50 to 100% | 80 to 100% | – |
| CC(=O)Nc1c(F)ccc(NC(=O)c2cc(NC(=O)[C@H]3[C@H](c4cc(F)cc(C(F)(F)F)c4)C3(Cl)Cl)ccc2Cl)c1F [F1708, N-(3-Acetamido-2,4-difluorophenyl)-2-chloro-5-((1R,3R)-2,2-dichloro-3-(3-fluoro-5-(trifluoromethyl)phenyl)cyclopropane-1-carboxamido)benzamide] | – | – | – | – | A (80–100) | 50 to 100% | 50 to 100% | 80 to 100% | – |
| CCNC(=O)c1c(F)ccc(NC(=O)[C@H]2[C@H](c3ccc(F)c(Cl)c3)C2(Cl)Cl)c1F (relative stereo) [F2016, trans-3-(2,2-Dichloro-3-(3-chloro-4-fluorophenyl)cyclopropane-1-carboxamido)-N-ethyl-2,6-difluorobenzamide] | – | – | – | – | – | – | – | – | YFM rating ([1]; Yellow Fever Mosquito): A (80–100); pest or weed control at 50 µg/cm2 [2, 14]: 50 to 100%; pest or weed control at 50 µg/cm2 [3, 15]: 50 to 100%; pest or weed control at 200 µg/mL [4, 5]: 80 to 100% |
| CN(C(=O)C(F)F)c1c(F)ccc(NC(=O)c2cc(NC(=O)[C@H]3[C@H](c4ccc(F)c(Cl)c4)C3(Cl)Cl)ccc2Cl)c1F [F1460, 2-Chloro-5-((1R,3R)-2,2-dichloro-3-(3-chloro-4-fluorophenyl)cyclopropane-1-carboxamido)-N-(3-(2,2-difluoro-N-methylacetamido)-2,4-difluorophenyl)benzamide] | – | – | – | – | A (80–100) | 50 to 100% | 50 to 100% | 80 to 100% | – |
| O=C(Nc1ccc(F)c(NC(=O)C(F)(F)C(F)F)c1F)c1cc(NC(=O)[C@H]2[C@H](c3ccc(F)c(Cl)c3)C2(Cl)Cl)ccc1Cl [F1703, 2-Chloro-5-((1R,3R)-2,2-dichloro-3-(3-chloro-4-fluorophenyl)cyclopropane-1-carboxamido)-N-(2,4-difluoro-3-(2,2,3,3-tetrafluoropropanamido)phenyl)benzamide] | – | – | – | – | A (80–100) | 50 to 100% | 50 to 100% | 80 to 100% | – |
| Nc1c(F)ccc(NC(=O)c2cc(NC(=O)[C@H]3[C@H](c4ccc(Cl)c(C(F)(F)F)c4)C3(Cl)Cl)ccc2Cl)c1F (relative stereo) [F1079, trans-N-(3-Amino-2,4-difluorophenyl)-2-chloro-5-(2,2-dichloro-3-(4-chloro-3-(trifluoromethyl)phenyl)cyclopropane-1-carboxamido)benzamide] | A (80–100) | 50 to 100% | 50 to 100% | 80 to 100% | – | – | – | – | – |
